Test results reported in patent US6579882B2, “Cell adhesion-inhibiting antiinflammatory compounds” (Abbott Laboratories, priority 1998, dated 2003).

Tests used:
Format in all cases: cell-based
Conditions in all cases: 1 μM compound, primary human umbilical vein endothelial cells, compound 24 hours, then TNF 5 ng/mL 6 hours; for inhibition at 1 µM: Homo sapiens, Endothelial cell
[1] = tested on: ICAM-1; test: CAM ELISA: ICAM-1 expression on TNF-stimulated HUVECs
Protocol: (§1) Pooled primary human umbilical vein endothelial cells (HtVEC's) (Clonetics) between passages 3 and 7 were plated in 96-well plates (Costar), 100 μL/well, 5×10^4 cells/mL in Clonetics EBM/2% FBS/EGF/Bovine brain extract/gentamicin in the absence of hydrocortisone. The following day, compounds of the invention were added in 10 μL/well medium, and the plates were incubated at 37° C. 24 hours after compound addition, TNF (Gibco/BRL) in 10 μL/well medium was added to a final concentration of 5 ng/mL, and the cells were incubated an additional 6 hours at 37° C. Then media was removed, and the plates were washed once with D-PBS (Gibco/BRL) and treated with primary antibodies (Becton Dickinson, City), 100 μL/well in D-PBS/2% BSA (Sigma)/0.01% azide. Primary antibodies at an initial concentration of 1 mg/mL were used at the following dilutions: anti-ELAM-1, 1:2000, anti-ICAM-1, 1:2000 and anti-VACM-1, 1:3000. Plates were stored overnight at 4° C., washed 3 times with D-PBS, and treated with secondary antibody (Jackson Labs), 100 μL/well 1:8000 dilution HRP-conjugated donkey anti-mouse IgG(H+L) in D-PBS/2%BSA. Plates were incubated a minimum of 1 hour at room temperature, washed 3 times with D-PBS and treated with 100 μL of orhto-phenylene diamine-2 HCl reagent per well. Plates were developed approximately 15 minutes and neutralized with 100 μL/well 1N sulfuric acid. Absorbance was read at 490 nm.

[2] = tested on: E-Selectin; test: CAM ELISA: E-selectin expression on TNF-stimulated HUVECs
Protocol: as §1

[3] = tested on: VCAM-1; test: CAM ELISA: VCAM-1 expression on TNF-stimulated HUVECs
Protocol: as §1

Compound	CAM ELISA % Inhibition at 1 μM ICAM-1 [1] [%]	CAM ELISA % Inhibition at 1 μM E-Selectin [2] [%]	CAM ELISA % Inhibition at 1 μM VCAM-1 [3] [%]	inhibition at 1 µM [1] [%]	inhibition at 1 µM [2] [%]	inhibition at 1 µM [3] [%]
Cc1c(C(N)=O)sc2cncc(Oc3ccc(Cl)cc3)c12 [Example 125, 4-(4-Chlorolphenoxy)-3-methylthienol[2,3-c]pyridine-2-carboxamide]	69	72	44			
Cc1ccc(Sc2ccnc3cc(C(N)=O)sc23)cc1 [Example 135, 7-[(4-methylphenyl)thio]thieno[3,2-b]pyridine-2-carboxamide]				22	29	34
O=C(O)CNC(=O)c1cc2c(Oc3ccc(Cl)cc3)cncc2s1 [Example 159]	45	30	13			
NC(=O)CNC(=O)c1cc2c(Oc3ccc(Br)cc3)cncc2s1 [Example 161, N-(2-Amino-2-oxoethyl)-4-(4-bromophenoxy)thieno[2,3-c]pyridine-2-carboxamide]				58	51	51
NC(=O)c1cc2c(Oc3cccnc3)cncc2s1 [Example 170, 4-(3-Pyridinyloxy)thieno[2,3-c]pyridine-2-carboxamide]				67	66	53
CNC(=O)c1cc2c(Oc3ccc(C(F)(F)F)cc3)cncc2s1 [Example 183, N-Methyl-4-[4-(trifluoromethyl)phenoxy]thieno[2,3-c]pyridine-2-carboxamide]				69	63	48
NC(=O)c1cc2c(Oc3cccc(C(F)(F)F)c3)cncc2s1 [Example 184, 4-[3-(Trifluoromethyl)phenoxy]thieno[2,3-c]pyridine-2-carboxamide]				56	52	30
N#Cc1ccc(Oc2cncc3sc(C(N)=O)cc23)cc1 [Example 187, 4-(4-Cyanophenoxy)thieno[2,3-c]pyridine-2-carboxamide]				72	78	54
CNC(=O)c1cc2c(Oc3ccc(N4CCOCC4)cc3)cncc2s1 [Example 190C, N-Methyl-4-[4-(4-morpholinyl)phenoxy]thieno[2,3-c]pyridine-2-carboxamide]				65	70	37
CNC(=O)c1cc2c(Oc3ccc(C(C)=O)cc3)cncc2s1 [Example 202, 4-(4-Acetylphenoxy)-N-methylthieno[2,3-c]pyridine-2-carboxamide]				68	80	49
CNC(=O)c1cc2c(Oc3ccc(/C=C/C(=O)NCCN4CCOCC4)cc3)cncc2s1 [Example 210]	58	64	42			
NC(=O)c1cc2c(Oc3ccc(-n4ccnc4)cc3)cncc2s1 [Example 217, 4-[4-(1H-Imidazol-1-yl)phenoxy]thieno[2,3-c]pyridine-2-carboxamide]				63	64	42
CNC(=O)c1cc2c(Oc3ccc(-n4cccn4)cc3)cncc2s1 [Example 218, N-Methyl-4-[4-(1H-pyrazol-1-yl)phenoxy]thieno[2,3-c]pyridine-2-carboxamide]				64	66	51
CNC(=O)c1cc2c(Oc3ccc(-n4cncn4)cc3)cncc2s1 [Example 219, N-Methyl-4-[4-(1H-1,2,4-triazol-1-yl)phenoxy]thieno[2,3-c]pyridine-2-carboxamide]				68	62	50
CNC(=O)c1cc2c(Oc3ccc(-c4noc(C(F)(F)F)n4)cc3)cncc2s1 [Example 220, N-Methyl-4-[4-[5-(trifluoromethyl)-1,2,4-oxadiazol-3-yl]phenoxy]thieno[2,3-c]pyridine-2-carboxamide]				51	60	32
CNC(=O)c1cc2c(Oc3ccc(-c4cccs4)cc3)cncc2s1 [Example 222, N-Methyl-4-[4-(2-thienyl)phenoxy]thieno[2,3-c]pyridine-2-carboxamide]				42	40	44

Compound	CAM ELISA % Inhibition at 1 μM ICAM-1 [1] [%]	CAM ELISA % Inhibition at 1 μM E-Selectin [2] [%]	CAM ELISA % Inhibition at 1 μM VCAM-1 [3] [%]	inhibition at 1 µM [1] [%]	inhibition at 1 µM [2] [%]	inhibition at 1 µM [3] [%]
CNC(=O)c1cc2c(Oc3ccc(-c4ccccc4)cc3)cncc2s1 [Example 223]	36	34	36			
CNC(=O)c1cc2c(Oc3ccc(-c4cncn4C)cc3)cncc2s1 [Example 224, N-Methyl-4-[4-(1-methyl-1H-imidazol-5-yl)phenoxy]thieno[2,3-c]pyridine-2-carboxamide]				55	61	41
CNC(=O)c1cc2c(Oc3ccc(C4(CO)CC4)cc3)cncc2s1 [Example 225, 4-{4-[1-(Hydroxymethyl)cyclopropyl]phenoxy}-N-methylthieno[2,3-c]pyridine-2-carboxamide]				78	75	60
CCOCCOCCOCC1(c2ccc(Oc3cncc4sc(C(=O)NC)cc34)cc2)CC1 [Example 226]	74	77	56			
CNC(=O)c1cc2c(Oc3ccc(OC(F)(F)F)cc3)cncc2s1 [Example 227, N-Methyl-4-[4-(trifluoromethoxy)phenoxy]thieno[2,3-c]pyridine-2-carboxamide]				62	61	44
CNC(=O)c1cc2c(Oc3ccc(C(F)(F)CO)cc3)cncc2s1 [Example 229]	55	54	46			
CCOCCOCCOCC(F)(F)c1ccc(Oc2cncc3sc(C(=O)NC)cc23)cc1 [Example 230, 4-(4-[2-[2-(2-Ethoxyethoxy)ethoxy]-1,1-difluoroethyl]phenoxy)-N-methylthieno[2,3-c]pyridine-2-carboxamide]				53	56	45
CC(C)OC(=O)OC[n+]1cc(Oc2ccc(Cl)cc2)c2cc(C(N)=O)sc2c1 [Example 233, 2-(Aminocarbonyl)-4-(4-chlorophenoxy)-6-{[(isopropoxycarbonyl)oxy]methyl}thieno[2,3-c]pyridin-6-ium]	79	74	62			
NC(=O)c1cc2c(OCc3ccccc3)cncc2s1 [Example 236, 4-(Benzyloxy)thieno[2,3-c]pyljdine-2-carboxamide]	59	59	33			
NC(=O)c1cc2c(C(=O)Nc3ccc(Cl)cc3)cncc2s1 [Example 238, N-4-(4-Chlorophenyl)thieno[2,3-c]pyridine-2,4-dicarboxamide]	47	46	17			
OCC(O)c1cc2c(Oc3ccc(Cl)cc3)cncc2s1 (stereo not drawn) [Example 254, 1-[4-(4-Chlorophenoxy)thieno[2,3-c]pyridin-2-yl]-1,2-ethanediol]				28	24	24
OCC(O)c1cc2c(Oc3ccc(Br)cc3)cncc2s1 (stereo not drawn) [Example 255, 1-[4-(4-Bromophenoxy)thieno[2,3-c]pjridin-2-yl]-1,2-ethanediol]	65	67	19			
CNC(=O)C(O)C(O)c1cc2c(Oc3ccc(Br)cc3)cncc2s1 (stereo not drawn) [Example 261, Methyl 3-[4-(4-Bromophenoxy)thieno[2,3-c]pyridin-2-yl]-2,3-dihydroxypropanamide]				16	20	0
Nc1nnc(-c2cc3c(Oc4ccc(Cl)cc4)cncc3s2)o1 [Example 275, 5-[4-(4-Chlorophenoxy)thieno[2,3-c]pyridin-2-yl]-1,3,4-oxadiazol-2-amine]				72	73	64
Nc1nnc(-c2cc3c(Oc4ccc(Br)cc4)cncc3s2)o1 [Example 276, 5-[4-(4-Bromophenoxy)thieno[2,3-c]pyridin-2-yl]-1,3,4-oxadiazol-2-ylamine]				61	66	52
Nc1nnc(-c2cc3c(Oc4ccc(C(F)(F)F)cc4)cncc3s2)o1 [Example 280, 5-{4-[4-(Trifluoromethyl)phenoxy]thieno[2,3-c]pyridin-2-yl}-1,3,4-oxadiazol-2-amine]				77	73	69
